In the supplement of paper PMC10627819:

Assays:
S. aureus DSM 20231 = assay: fitness (endpoint OD595 vs no drug) (fraction); higher = more growth
Summary of the method: (§1)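 Bacterial growth was followed in 384-well plates seeded at OD595 0.01, with 30 µl per well, or 55 µl for S. pneumoniae, in TSB, LB Lennox or CY at 37 °C. OD595 was read every 30 min for 14 h, and each reading had the first reading subtracted as background. Fitness is the background-corrected optical density at entry into stationary phase divided by the robust mean of the no-drug control wells. This ratio is capped at 1.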

S. aureus Newman = assay: as above
Summary of the method: as §1

O=C(N[C@H](CO)[C@H](O)c1ccc([N+](=O)[O-])cc1)C(Cl)Cl [Chloramphenicol] + CO/N=C(\C(=O)N[C@@H]1C(=O)N2C(C(=O)O)=C(COC(C)=O)CS[C@H]12)c1csc(N)n1 [Cefotaxime]
fitness
Details | first compound 0.75 µg/mL | first compound 1.5 µg/mL | first compound 3 µg/mL
S. aureus DSM 20231, partner 0.039 µg/mL | 0.649 | 0.629 | 0.137
S. aureus DSM 20231, partner 0.078 µg/mL | 0.672 | 0.618 | 0.191
S. aureus DSM 20231, partner 0.156 µg/mL | 0.641 | 0.599 | 0.194
S. aureus Newman, partner 0.078 µg/mL | 0.534 | 0.321 | 0.136
S. aureus Newman, partner 0.156 µg/mL | 0.406 | 0.206 | 0.0948
S. aureus Newman, partner 0.312 µg/mL | 0.198 | 0.0711 | 0.065

fitness, one replicate
Details | first compound 0.75 µg/mL | first compound 1.5 µg/mL | first compound 3 µg/mL
S. aureus DSM 20231, partner 0.312 µg/mL | 0.607 | 0.586 | 0.227
S. aureus Newman, partner 0.625 µg/mL | 0.0565 | 0.0229 | 0.0195
S. aureus Newman, partner 1.25 µg/mL | 0.0337 | 0.0237 | 0.0515
S. aureus Newman, partner 2.5 µg/mL | 0.0674 | 0.0266 | 0.0651

O=C(N[C@H](CO)[C@H](O)c1ccc([N+](=O)[O-])cc1)C(Cl)Cl [Chloramphenicol] + N[C@@H]1CONC1=O [Cycloserine D]
fitness
Details | partner 0.375 µg/mL | partner 0.75 µg/mL | partner 1.5 µg/mL
S. aureus DSM 20231, first compound 0.75 µg/mL | 0.642 | 0.662 | 0.66
S. aureus DSM 20231, first compound 3 µg/mL | 0.0914 | 0.0972 | 0.0952
S. aureus Newman, first compound 0.75 µg/mL | 0.813 | 0.824 | 0.801
S. aureus Newman, first compound 1.5 µg/mL | 0.573 | 0.542 | 0.571
S. aureus Newman, first compound 3 µg/mL | 0.201 | 0.164 | 0.165

N[C@@H]1CONC1=O [Cycloserine D] + CO/N=C(\C(=O)N[C@@H]1C(=O)N2C(C(=O)[O-])=C(C[N+]3(C)CCCC3)CS[C@H]12)c1csc(N)n1 [Cefepime]
fitness
Details | first compound 0.375 µg/mL | first compound 0.75 µg/mL | first compound 1.5 µg/mL
S. aureus DSM 20231, partner 0.125 µg/mL | 0.907 | 0.936 | 0.99
S. aureus DSM 20231, partner 0.25 µg/mL | 0.92 | 0.97 | 0.952
S. aureus DSM 20231, partner 0.5 µg/mL | 0.853 | 0.884 | 0.862
S. aureus Newman, partner 0.125 µg/mL | 0.894 | 0.925 | 0.89
S. aureus Newman, partner 0.25 µg/mL | 0.808 | 0.854 | 0.852
S. aureus Newman, partner 0.5 µg/mL | 0.782 | 0.801 | 0.779
